Patent publication US4735947A, “Methyllevallorphanium salts having peripheral opiate antagonistic activity” (Sanofi, priority 1983, dated 1988)
Where a name gives a salt, the structure may show the parent alone.

Tests used:
[1] = tested on: analgesic effect of morphine; experiment: antagonism to the analgesic effect of morphine, hot-plate analgesia test (P. A. Janssen et al.); format: in vivo, mice; settings: for Antagonism to the analgesic effect ID50a / ED50: female mice, antagonist s.c. 5 min before morphine 24 mg/kg s.c.; for ED50: read-out: Antagonism to the analgesic effect ID50a
Procedure: (§1) The antagonism to the peripheral action of opiates is assessed on the basis of the percent inhibition of the analgesic and of the constipating effects of morphine. The ratio between the dose which inhibits by 50% the analgesic effect of morphine and the dose which inhibits by 50% its constipating effect represents the index of the peripheral activity.
(§2) The antagonism to the analgesic effect of morphine was assessed by the hot-plate analgesia test according to P. A. Janssen et al. (J. Pharm. Pharmacol. 1957, 9, 381-400) by using fasting (18 hours) female mice of 20-22 g. Morphine was injected subcutaneously (24 mg/kg) thirty minutes before the beginning of the test. The antagonist was injected subcutaneously 5 minutes before the morphine. The antagonistic activity was expressed as ID50 of the morphine antinociceptive effect, calculated on the basis of the log dose reaction time regression of the animals treated with different doses of the products under testing.
(§3) The doses which inhibit by 50% the analgesic effect (ID50a) and the constipating effect (ID50c) have been extrapolated from least square log dose-response line by applying the analysis of the variance by linear regression.

[2] = tested on: constipating effect of morphine; experiment: antagonism to the morphine constipating effect, charcoal meal test (A. F. Green, slightly modified); format: in vivo, mice; settings: for Antagonism to the constipating effect ID50c / ED50: charcoal meal, female mice, antagonist s.c. 5 min before morphine 12 mg/kg s.c.; for ED50: Mus musculus, sc, read-out: Antagonism to the constipating effect ID50c
Procedure: as §1
(§4) The antagonism to the morphine constipating effect of the methyl levallorphanium salts of the present invention was assessed according to the test described by A. F. Green (Br. J. Pharm. Chemother. 1959, 14, 26-34), slightly modified.
(§5) Three groups of fasting (20 hours) female mice of about 20 g were used. To a control group, a meal consisting of 0.2 ml of a mixture of 5% arabic gum (6 ml), flour (2 g) and charcoal (1 g) was administered by oral route. The second group was treated with 12 mg/kg of morphine s.c. and, immediately afterwards, with the above charcoal meal. […] After 30 minutes, the animals were sacrificed to assess the portion of intestine through which the charcoal had passed, expressed as percent of the total length of the small intestine.
as §3

[3] = tested on: analgesic and constipating effects of morphine; experiment: index of peripheral activity (hot-plate analgesia test versus charcoal meal constipation test); format: in vivo, mice; settings: for ID50a/ID50c: index of the peripheral activity; for peripheral selectivity (analgesic versus constipating effect), in words: conditions of Table I
Procedure: as §1, §2, §4, §5, §3

opiate = settings: reported in earlier literature or filings; cited from earlier work

Structure (SMILES)	Antagonism to the analgesic effect ID50a [1] [mg/kg]	Antagonism to the constipating effect ID50c [2] [mg/kg]	ID50a/ID50c [3]	ED50 ([1]; Mus musculus, sc) [mg/kg]	ED50 [2] [mg/kg]	peripheral selectivity (analgesic versus constipating effect), in words [3]	inhibition at 30 mg/kg ([1]; Mus musculus, sc, at 30 mg/kg s.c., mice, read-out: inhib. of the analgesic effect of morphine) [%]	inhibition at 60 mg/kg ([1]; Mus musculus, sc, at 60 mg/kg s.c., mice, read-out: inhib. of the analgesic effect of morphine) [%]	peripheral opiate antagonism, in words ([2]; conditions of Table I)	peripheral antagonistic activity / opiate antagonistic activity (opiate)
C=CC[N+]1(C)CC[C@]23CCCC[C@H]2[C@H]1Cc1ccc(O)cc13 (single isomer, unassigned) [methyllevallorphanium mesilate]	> 60	7.4	> 8							
C=CCN1CC[C@]23CCCC[C@H]2[C@H]1Cc1ccc(O)cc13 [levallorphan tartrate]			0.01	0.03	5.5	more active as antagonists of the analgesic effect than as antagonists of the constipating effect				
C=CCN1CC[C@]23c4c5ccc(O)c4O[C@H]2C(=O)CC[C@@]3(O)[C@H]1C5 [naloxone, N-allylnoroxymorphone]			0.08	0.06	0.75	more active as antagonists of the analgesic effect than as antagonists of the constipating effect				
C=CC[N+]1(C)CC[C@]23CCCC[C@H]2[C@H]1Cc1ccc(O)cc13 (single isomer, unassigned) [methyllevallorphanium methylsulfate]			~ 12	~60	4.9		41	49		
C=CC[N+]1(CC=C)CC[C@]23CCCC[C@H]2[C@H]1Cc1ccc(O)cc13 [levallorphan bromoallylate]			0.97		15.7	the ratio between its ID50a and ID50c is by far lower than that of the compounds of the present invention			good opiate peripheral antagonist	peripheral narcotic antagonist
C=CC[N+]1(C)CC[C@]23c4c5ccc(O)c4O[C@H]2C(=O)CC[C@@]3(O)[C@H]1C5.COS(=O)(=O)[O-] (stereo partly drawn) [naloxone sulfomethylate]	1.6	5.8	0.27							
